The test system of this assay is IRE1-XBP1s (XBP1-RLuc splicing reporter in HEK293 T-REx cells). Description: IRE1-XBP1s activation assay (XBP1-RLuc splicing reporter, HEK293 T-REx cells, luminescence relative to thapsigargin). Format: cell-based. The note with it: 18 h, read-out: Activity (IRE1-XBP1s activation, luminescence as % signal relative to thapsigargin, % Tg). On the procedure:
IRE1-XBP1s activation Assay: HEK293 T-REx cells stably expressing the XBP1-RLuc splicing reporter were treated with an IRE1-XBP1s activator provided herein (10 μM) in the presence or absence of the IRE1 active site inhibitor 4μ8C (32 μM) for 18 h. Luminescence was shown as the percentage signal relative to thapsigargin (Tg) (500 nM, 18 h).

The mark [1] stands for this setting: compound 10 μM, HEK293 T-REx XBP1-RLuc reporter cells, relative to thapsigargin (Tg) 500 nM.

SMILES strings stand for the structures. Where two headings read alike, the source gives them in different places.

As for `Cc1ccc(OCCN(C)C(=O)Cn2cc(NC(=O)CCNC(=O)c3ncc(F)cn3)cn2)cc1` [Compound 248, 5-Fluoro-N-[3-[[1-[2-[methyl-[2-(4-methylphenoxy)ethyl]amino]-2-oxo-ethyl]pyrazol-4-yl]amino]-3-oxo-propyl]pyrimidine-2-carboxamide], the activation at 10 µM under setting [1] is < 30%.

`Cc1ccc(OCCN(C)C(=O)Cn2cc(N(C)C(=O)CCOc3ccccc3F)cn2)cc1` [Compound 51]: the activation at 10 µM under setting [1] is < 30%. The same measure, in the same setting: under `Cc1ccc(OCCN(C)C(=O)Cn2cc(NC(=O)CCNc3cccc(N)n3)cn2)cc1` [Compound 154] stands > 50%; under `Cc1ccc(OCCC(=O)Nc2cnn(CC(=O)N(C)CCOc3ccc(C)c(C(F)(F)F)c3)c2)c(F)c1` [Compound 79], < 30%; under `Cc1ccc(OCCN(C)C(=O)Cn2cc(NC(=O)CCOC3CCCCC3(C)C)cn2)cc1` (stereo not shown) [Compound 4], < 30%. Same read-out and setting: under `Cc1ccc(OCCN(C)C(=O)Cn2cc(NC(=O)CCOc3ccc(F)cc3F)cn2)cc1` [Compound 49] stands > 50%.

`Cc1ccc(OCCN(C)C(=O)Cn2cc(NC(=O)CCNc3ccc(Cl)nc3)cn2)cc1` [Compound 178]: the activation at 10 µM under setting [1] lay in the range of 30 to 50%. On the same count and under the same terms, under `Cc1ccc(OCCN(C)C(=O)Cn2cc(NC(=O)CCOc3cccc(N)n3)cn2)cc1` [Compound 103] stands > 50%; under `Cc1ccc(OCCN(C)C(=O)Cn2cc(NC(=O)CCNc3ccnc(C)c3F)cn2)cc1` [Compound 209], < 30%; under `Cc1ccc(OCCN(C)C(=O)Cn2cc(NC(=O)CCOc3ccc4c(c3)OCO4)cn2)cc1` [Compound 33], > 50%. The same measure, in the same setting: under `Cc1ccc(OCCN(C)C(=O)Cn2cc(NC(=O)CCOc3c(F)cncc3F)cn2)cc1` [Compound 18] stands > 50%; under `Cc1ccc(OC[C@H](C)N(C)C(=O)Cn2cc(NC(=O)CCOc3c(F)cccc3F)cn2)cc1` [Compound 81], > 50%. Same read-out and setting: under `Cc1ccc(OCCN(C)C(=O)Cn2cc(NC(=O)CCNc3cnc(C)nc3)cn2)cc1` [Compound 212] stands < 30%; under `CN(CCOc1ccc(C(F)(F)F)cn1)C(=O)Cn1cc(NC(=O)CCNc2ccnc(F)n2)cn1` [Compound 267], 30 to 50%.

Consider `Cc1ccc(OCCN(C)C(=O)Cn2cc(NC(=O)CCOc3cccc(N(C)C)c3)cn2)cc1` [Compound 38], for which the activation at 10 µM under setting [1] was > 50%. The same measure, in the same setting: under `Cc1ccc(OCCC(=O)Nc2cnn(CC(=O)N(C)CCOc3ccc(F)c(F)c3)c2)c(F)c1` [Compound 70] stands < 30%; under `Cc1ccc(OCCN(C)C(=O)Cn2cc(NC(=O)CCNc3cccnc3F)cn2)cc1` [Compound 189], < 30%; under `CN(CCOc1ccc(C(F)(F)F)cn1)C(=O)Cn1cc(NC(=O)CCNc2ccnc(O)n2)cn1` [Compound 265], < 30%.

For `Cc1ccc(OCCN(C)C(=O)Cn2cc(NC(=O)CCOc3ccncc3N)cn2)cc1` [Compound 112], the activation at 10 µM under setting [1] lay in the range of 30 to 50%. `Cc1ccc(OCCN(C)C(=O)Cn2cc(NC(=O)CCOc3ccc(F)cc3C)cn2)cc1` [Compound 35]: the activation at 10 µM under setting [1] is > 50%. Regarding `Cc1ccc(OCCN(C)C(=O)Cn2cc(NC(=O)CCNc3ncccc3Cl)cn2)cc1` [Compound 148], the activation at 10 µM under setting [1] was 30 to 50%. Still for that read-out and setting: under `Cc1ccc(OCCN(C)C(=O)Cn2cc(N(C)C(=O)CCOc3ccccc3)cn2)cc1` [Compound 50] stands < 30%. The same measure, in the same setting: under `Cc1ccc(OCCN(C)C(=O)Cn2cc(NC(=O)CCOc3ccnc(N)c3)cn2)cc1` [Compound 104] stands > 50%; under `Cc1cc(OCCN(C)C(=O)Cn2cc(NC(=O)CCNc3ccnc(F)n3)cn2)no1` [Compound 263], < 30%; under `COc1ccc(OCCN(C)C(=O)Cn2cc(NC(=O)CCOc3ccc(C)cc3F)cn2)cc1` [Compound 77], < 30%. Regarding `CN(CCOc1ccccn1)C(=O)Cn1cc(NC(=O)CCOc2ccccc2F)cn1` [Compound 43, 3-(2-fluorophenoxy)-N-(1-(2-(methyl(2-(pyridin-2-yloxy)ethyl)amino)-2-oxoethyl)-1H-pyrazol-4-yl)propanamide], the activation at 10 µM was < 30%. Regarding `Cc1ccc(OCCN(C)C(=O)Cn2cc(NC(=O)C(C)(C)CNc3ccc(F)nc3C)cn2)cc1` [Compound 221], the activation at 10 µM under setting [1] was < 30%. Same read-out and setting: under `Cc1ccc(OCCN(C)C(=O)Cn2cc(NC(=O)CCOc3cncc(N)c3)cn2)cc1` [Compound 235] stands < 30%.

As to `Cc1ccc(OCCN(C)C(=O)Cn2cc(NC(=O)CCOc3ccccc3Cl)cn2)cc1` [Compound 32], the activation at 10 µM under setting [1] was > 50%.

For the compound `Cc1ccc2nc(OCCN(C)C(=O)Cn3cc(NC(=O)CCNc4ccc(F)nc4C)cn3)sc2c1` [Compound 239], under setting [1], the activation at 10 µM was < 30%. The same measure, in the same setting: under `Cc1ccc(OCCN(C)C(=O)Cn2cc(NC(=O)[C@@H](CNc3ccc(F)nc3C)C(C)C)cn2)cc1` [Compound 171] stands 30 to 50%; under `Cc1ccc(OCCN(C)C(=O)Cn2cc(NC(=O)CCNc3ccnc(F)c3Cl)cn2)cc1` [Compound 190], < 30%; under `Cc1ccc(OCCN(C)C(=O)Cn2cc(NC(=O)C(CNc3ncc(F)cn3)CC(C)C)cn2)cc1` (stereo not shown) [Compound 162], < 30%. Still for that read-out and setting: under `Cc1ccc(OCCC(=O)Nc2cnn(CC(=O)N(C)CCOc3ccc(Cl)cc3)c2)c(F)c1` [Compound 71] stands < 30%; under `Cc1ccc(OCCN(C)C(=O)Cn2cc(NC(=O)CCNc3ccnc(F)c3)cn2)cc1` [Compound 131], 30 to 50%. For the compound `Cc1ccc(OCCN(C)C(=O)Cn2cc(NC(=O)CCNc3ccc4c(c3)OC(F)(F)O4)cn2)cc1` [Compound 290], the activation at 10 µM under setting [1] is < 30%. As for `CN(CCOc1ccc(F)cc1)C(=O)Cn1cc(NC(=O)CCOc2ccccc2)cn1` [Compound 29], under setting [1], the activation at 10 µM was < 30%. Still for that read-out and setting: under `Cc1ccc(OCCN(C)C(=O)Cn2cc(NC(=O)CCNc3cnc(Cl)cn3)cn2)cc1` [Compound 127] stands > 50%; under `Cc1ccc(OCCN(C)C(=O)Cn2cc(NC(=O)CCNc3ccc(C)nc3F)cn2)cc1` [Compound 181], < 30%.

For `CN(CCOc1ccc(C(F)(F)F)cn1)C(=O)Cn1cc(NC(=O)CCNc2c(F)cncc2Cl)cn1` [Compound 213], the activation at 10 µM under setting [1] was > 50%. Still for that read-out and setting: under `Cc1ccc(OCCN(C)C(=O)Cn2cc(NC(=O)CCNc3nc(C)ccc3F)cn2)cc1` [Compound 159] stands 30 to 50%. In the case of `Cc1cnc(OCCN(C)C(=O)Cn2cc(NC(=O)CCNc3ccc(F)nc3C)cn2)cn1` [Compound 240], the activation at 10 µM under setting [1] is < 30%.

In the case of `Cc1ccc(OCCN(C)C(=O)Cn2cc(NC(=O)CCOc3cccnc3N)cn2)cc1` [Compound 233], under setting [1], the activation at 10 µM is > 50%.

As to `Cc1ccc(OCCN(C)C(=O)Cn2cc(NC(=O)CCNc3ccnc(C(F)(F)F)c3)cn2)cc1` [Compound 128], under setting [1], the activation at 10 µM is < 30%.

`Cc1ccc(OCCN(C)C(=O)Cn2cc(NC(=O)CCNc3ccc(OCc4ccccc4)cn3)cn2)cc1` [Compound 165]: under setting [1], the activation at 10 µM is < 30%. Still for that read-out and setting: under `Cc1ccc(OCCN(C)C(=O)Cn2cc(NC(=O)CCN(C)c3ccccc3)cn2)cc1` [Compound 21] stands < 30%.

For the origin of these results see patent US20260193236A1 (Protego Biopharma, Inc., priority 2022, published 2026).
